Legend:
spleen cells = assay: Plaque forming cell assay (inhibition of antibody production); type: cell-based, Balb/c strain mice; settings: Mus musculus, 120 h, inhibition of antibody production (PFC count), incubated 5 days, read-out: Inhibition rate (%); for inhibition at 10 µM: 10^-5M; for inhibition at 1 µM: 10^-6M
Description: The plaque forming cell assay was performed by the following manner with reference to the method of Jerne [Science, 140, 405, (1963)] and the method of Yamamoto et al. [Drugs Exptl. Clin. Res., 8, 5, (1982)].
Male Balb/c strain mice (aged 7 weeks, SLC) were sensitized with 1 x 10^8 sheep red blood cells (Bio Test Research Institute), and 6 or 7 days after the sensitization, the spleen was extirpated. The cells obtained from the spleen were treated with ACT solution (tris-ammonium chloride isotonic buffer) to remove red blood cells. The cells were washed three times with an RPMI-1640 medium (Nissui Pharmaceutical Co., Ltd.). The spleen cells (1 x 10^7 cells), the test compound dissolved in dimethyl sulfoxide and sheep blood red cells (5 x 10^6) were suspended in an RPMI-1640 medium containing 10% bovine serum (Gibco Company), 2-mercaptoethanol (5 x 10^-5M), 50 µg/ml of streptomycin and 50 IU/ml of penicillin. The suspension was distributed into a microculture plate (NUNC Co., Ltd., 24 holes), and incubated for 5 days in a carbon dioxide gas incubator at 37°C.
After the termination of the incubation, the cells were transferred to a plastic test tube. The supernatant was removed by centrifugal separation (2000 rpm), and the pellet was re-suspended in 1 ml of an RPMI-1640 culture medium. The cell suspension, sheep blood red cells, and guinea pig complement (Cedarlene Institute) were incubated by the method of Cunningham [Immunology, 14, 599, (1968)], at 37°C for 1 to 2 hours. The appearing direct plaque cells (PFC count) in suspension were counted. From the resulting PFC count, the inhibition rate of the antibody production of the test compound was determined by the following formula. Inhibition rate (%) =(A - B)/(A)x 100 [formula] A : PFC count in the absence of test compound (dimethylsulfoxide alone) B : PFC count in the presence of test compound

hair growth = assay: Hair growth stimulation; type: in vivo, C3H/HeSlc-strain mice; settings: 16th day; applied once a day in ethanol : propyleneglycol (6 : 4); Compound 1 at 0.14 %, Compound 3 at 1.00 % (Table 4)
Excerpt: Effect of test compound on hair growth in mice was examined. Hair on the back of male C3H/HeSlc-strain mice aged 9 weeks, which was in the telogen of hair cycle was clipped off by an electric hair-clipper. The test compound dissolved in a solvent mixture [ethanol : propyleneglycol (6 : 4)] was uniformly applied to the hair removed area of the mice once a day. The group which received the solvent mixture alone was used as control.
Hair growth stimulation was estimated by measuring the ratio of the hair growing area to the test compound treated area by photograph. In the group having received the test comound, darkening of intraderma (indicating the formation of hair follicles) was observed on the 10th day, and then hair growth rapidly progressed.
In contrast, on the 16th day of the control group, darkening of intraderma was observed only in the part of the solvent treated area and hair growth scarcely occurred. […]

tracheae = assay: Passive Schultz-Dale (S-D) reaction, relaxation of antigen-contracted tracheal strips; design: species or system Hartley guinea pigs; settings: Cavia porcellus; concentration of 50% relaxation rate; passively sensitized guinea pig tracheal strips contracted with egg white albumin 1 µg/ml
Description: Male Hartley guinea pigs weighing 350 to 500 g were passively sensitized by intraperitoneal injection of rabbit anti-OA serum prepared in advance by the method of Koda et al. [Folia Pharmacol., Japon 66, 237, (1970)]. After 24 hours, the guinea pigs were stunned and exsanguinated, and then tracheae were removed. The zig-zag strips of the tracheae were prepared by the method of Emmerson and Mackay [J. Pharm. Pharmacol., 31, 798, (1979)]. The strips were suspended in Krebs-Henseleit solution at 37°C under aeration of a mixed gas of 95% oxygen and 5% carbon dioxide, and equilibrated for one hour. Then, antigen (egg white albumin) was introduced in the solution (final concentration; 1 µg/ml), and the contraction was measured by isotonictransducer (TD-112s, Nihon Kohden Co., Ltd.) and recorded on a recorder (Type 3066, Yokogawa-Hokushin Denki, Co., Ltd.). After the contraction curves reached a plateau, the test compounds were successively added in order to get cumulative concentration-relaxation curves. The concentration of 50% relaxation rate (IC50) was calculated from the regression line, which was obtained from the cumulative concentration-relaxation curves.

PAF-induced mortality = assay: Inhibition effect on platelet activating factor (PAF)-induced mortality; type: in vivo, dd mice; settings: Mus musculus, po, 2 h, minimum effective dose, orally, one hour before 40 µg/kg PAF intravenously, mortality two hours after PAF, read-out: Inhibition of PAF-induced mortality MED
Description: The experiment was performed by a minor modification of method of Carlson et al. [Agents and Actions, 21, 379 (1987)]. Groups each consisting of 10 male dd mice (weighing 28 to 32 g) were used, and 100 mg/kg of test compound or a saline (control) was orally administered. One hour after the administration of the test compound, 40 µg/kg of PAF (manufactured by Avanti Polar Lipids Co., Ltd.) were intravenously administered. Two hours after PAF injection, the mortality rate of the animals was observed. […]

Acute toxicity test = type: in vivo, dd-strain mice; settings: orally administered; mortality observed for seven days
Description: Male dd-strain mice weighing 20 -25 g, groups each consisting of 3 animals, were used, and Compound 1 and Compound 3 were orally administered. MLD was determined by observing the mortality for seven days after the administration. MLD of both compounds were over 300 mg/kg.

SMILES | inhibition at 10 µM (spleen cells) [%] | inhibition at 1 µM (spleen cells) [%] | Hair growing area (%) Mean ± S.D. (hair growth) [%] | IC50 (tracheae) [nM] | minimal effective dose (PAF-induced mortality) [mg/kg] | MLD (Acute toxicity test)
O=c1c2c(-c3ccccc3)n[nH]c2c2cccnc2n1-c1ccccc1 [Compound 1, 3,5-Diphenyl-1H-pyrazolo[4,3-c][1,8]naphthyridin-4(5H)-one] | 85.8 | 77.2 | 91.5 ± 8.0 | 3150 | 10 | over 300 mg/kg
Cc1n[nH]c2c1c(=O)n(-c1ccccc1)c1ncccc21 [Compound 2, 3-Methyl-5-phenyl-1H-pyrazolo[4,3-c][1,8]naphthyridin-4(5H)-one] | 92.4 | 85.8 | – | – | – | –
CC(C)Cc1n[nH]c2c1c(=O)n(-c1ccccc1)c1ncccc21 [Compound 3, 3-Isobutyl-5-phenyl-1H-pyrazolo[4,3-c][1,8]naphthyridin-4(5H)-one] | 74.9 | 77.2 | 91.8 ± 7.2 | 258 | 5 | over 300 mg/kg
Cc1nn(C)c2c1c(=O)n(-c1ccccc1)c1ncccc21 [Compound 4, 1,3-Dimethyl-5-phenyl-1H-pyrazo1o[4,3-c][1,8]naphthyridin-4(5H)-one] | 81.4 | – | – | – | – | –
Cn1nc(N)c2c(=O)n(-c3ccccc3)c3ncccc3c21 [Compound 6, 3-Amino-1-methyl-5-phenyl-1H-pyrazolo[4,3-c][1,8]naphthyridin-4(5H)-one] | 76.5 | – | – | – | – | –
Nc1c2c(=O)n(-c3ccccc3)c3ncccc3c2nn1-c1ccccc1 [Compound 7, 3-Amino-2,5-diphenyl-2H-pyrazolo[4,3-c][1,8]naphtyyridin-4(5H)-one] | 83.8 | – | – | – | – | –
O=c1c2c(-c3cccs3)n[nH]c2c2cccnc2n1-c1ccccc1 [Compound 10, 5-Phenyl-3-thienyl-1H-pyrazolo[4,3-c][1,8]naphthyridin-4(5H)-one] | 83.9 | 57.1 | – | 708 | – | –
COc1ccc(-c2n[nH]c3c2c(=O)n(-c2ccccc2)c2ncccc32)cc1 [Compound 11, 3-(4-methoxyphenyl)-5-phenyl-1H-pyrazolo[4,3-c][1,8]naphthyridin-4(5H)-one] | 99.5 | 26.5 | – | – | – | –

Source: patent EP0526840B1, “Condensed naphthyridine derivatives” (KYOWA HAKKO KOGYO CO., LTD., priority 1991, dated 1993)
